This is an account of results in patent US20130323303A1, “DRUG CARRIER AND PREPARATION METHOD THEREOF” (NATIONAL CHIAO TUNG UNIVERSITY, priority 2012, published 2013).

For the test, the system named is tumor (transplanted cancer cells carrying fluorescent gene). As to the kind of experiment: Animal tumor model, tumor size recorded via in vivo imaging system (IVIS). To be noted: mouse model, after 28 days of drug treatment. As to the method:
Under the in vivo experiment of animal tumor model, first a mouse model treated with doxorubucin was prepared as the control group, and another mouse model treated with the oral drug carrier containing doxorubucin was prepared as the experimental group. After drug treatment, the mouse models were recorded the variation of tumor size via in vivo imaging system (IVIS) (because of the mice transplanted with the cancer cells carrying fluorescent gene).
FIG. 6A and 6B are […] of the experimental group that the mouse model was treated with drug at 0 day and after 28 days. The tumor size of the mouse model in the experimental group was 65% compared to before treatment. FIG. 6C and 6D are IVIS photos of the control group that the mouse model was treated with drug at 0 day and after 28 days. […] FIG. 7 is a variation graph in fluorescence values of tumor cells tested by IVIS, and the tumor cells were from the above mouse model treated with drug.

Structures are written as SMILES.

On to `COc1cccc2c1C(=O)c1c(O)c3c(c(O)c1C2=O)C[C@@](O)(C(=O)CO)C[C@@H]3O[C@H]1C[C@H](N)[C@H](O)[C@H](C)O1` [doxorubucin, doxorubicin], for which the “tumor size compared to before treatment” value was 200%.
